Consider 20 compounds from US10160747B2, “Compounds and methods for kinase modulation, and indications therefor” (Plexxikon Inc., priority 2016, dated 2018).

SMILES strings stand for the structures.

Assay [1] deals with MOLM-14 D835Y (endogenous FLT3 ITD and transfected FLT3 D835Y). The experiment in a line: MOLM-14 D835Y cell proliferation assay (CellTiter-Glo). It counts as cell-based. To be noted: Homo sapiens, MOLM-14, 72 h; 3 d growth, GMean. A digest of the protocol: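 MOLM-14 derivatives carrying D835Y or F691L, selected under escalating AC220, were seeded at 1×10^4 cells/well and exposed to an 8-point 1:3 compound series (1 to 0.00046 μM, 0.2% DMSO final) for three days at 37° C., 5% CO2. CellTiter-Glo luminescence (ATP content) versus concentration gave IC50.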
(In general: In ATP-based viability assays light output follows the ATP content of the culture.)

A further assay concerns the target T1, BA/F3-FLT3-ITD + D835Y (Homo sapiens, UniProt P36888, D835Y, cells depend on it, form not given).
T1 sequence (P36888 with tags, fused parts or gaps INS600HVDFREYEYD/D835Y): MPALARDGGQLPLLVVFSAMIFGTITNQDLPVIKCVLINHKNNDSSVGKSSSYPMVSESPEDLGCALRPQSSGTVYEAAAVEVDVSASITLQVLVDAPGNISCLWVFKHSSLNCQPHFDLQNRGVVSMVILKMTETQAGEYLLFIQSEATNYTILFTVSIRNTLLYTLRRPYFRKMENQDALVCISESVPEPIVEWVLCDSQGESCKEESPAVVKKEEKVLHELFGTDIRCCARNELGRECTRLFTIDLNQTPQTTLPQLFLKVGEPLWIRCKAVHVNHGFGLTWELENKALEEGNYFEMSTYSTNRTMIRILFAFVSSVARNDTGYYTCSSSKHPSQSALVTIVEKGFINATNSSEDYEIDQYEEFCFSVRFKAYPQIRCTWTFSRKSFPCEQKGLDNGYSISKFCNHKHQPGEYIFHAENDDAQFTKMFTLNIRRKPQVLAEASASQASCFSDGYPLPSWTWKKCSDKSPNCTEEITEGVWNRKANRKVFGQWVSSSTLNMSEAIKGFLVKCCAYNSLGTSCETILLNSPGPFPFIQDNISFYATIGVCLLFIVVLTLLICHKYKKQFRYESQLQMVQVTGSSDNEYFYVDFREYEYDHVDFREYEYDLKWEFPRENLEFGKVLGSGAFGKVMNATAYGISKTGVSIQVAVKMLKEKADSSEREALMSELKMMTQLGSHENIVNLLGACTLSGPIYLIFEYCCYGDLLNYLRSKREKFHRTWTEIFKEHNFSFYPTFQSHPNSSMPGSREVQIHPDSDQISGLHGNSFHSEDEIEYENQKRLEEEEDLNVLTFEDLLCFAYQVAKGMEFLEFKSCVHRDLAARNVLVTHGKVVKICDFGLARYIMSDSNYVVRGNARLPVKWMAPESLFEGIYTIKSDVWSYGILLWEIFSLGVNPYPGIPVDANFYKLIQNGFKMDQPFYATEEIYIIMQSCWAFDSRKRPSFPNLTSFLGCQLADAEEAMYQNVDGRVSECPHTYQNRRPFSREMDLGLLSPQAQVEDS
As to the kind of experiment: Engineered BA/F3 cell growth assay, FLT3 ITD/D835Y. It counts as cell-based, murine. To be noted: 3 d growth. A digest of the protocol:
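IC50 derived from CellTiter-Glo ATP luminescence after 3 days at 37 °C, 5% CO2, over eight 1:3 dilutions from 1 μM (0.2% DMSO final). Cells: IL-3-independent murine Ba/F3 expressing full-length FLT3 ITD/D835Y, 1×10^4 per well.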

In assay [1], `Cn1cc(Nc2ncc(-c3ccc(CC(=O)Nc4ccc(C(C)(C)C#N)nc4)cc3)cn2)cn1` [Compound P-0146, N-[6-(1-cyano-1-methyl-ethyl)-3-pyridyl]-2-[4-[2-[(1-methylpyrazol-4-yl)amino]pyrimidin-5-yl]phenyl]acetamide] had an IC50 of 0.0001 to 10 µM. Also, the GI50 at BA/F3-FLT3-ITD + D835Y is 0.0001 to 10 µM.

`Cn1cnc(Nc2ncc(-c3ccc(CC(=O)Nc4cncc(C(F)(F)F)c4)cc3)cn2)c1` [Compound P-0167] registered an IC50 in assay [1] of 0.0001 to 10 µM. The concentration for 50% growth inhibition (GI50) on BA/F3-FLT3-ITD + D835Y lay within 0.0001 to 10 µM.

Compound `Cc1ncc(NC(=O)Cc2ccc(-c3cnc4[nH]nc(C)c4c3)c(F)c2)cc1C(F)(F)F` [Compound P-0172, 2-[3-fluoro-4-(3-methyl-1H-pyrazolo[3,4-b]pyridin-5-yl)phenyl]-N-[6-methyl-5-(trifluoromethyl)-3-pyridyl]acetamide] displayed a 50% inhibitory concentration (IC50) in assay [1] of 0.0001 to 10 µM. Further, the GI50 at BA/F3-FLT3-ITD + D835Y was in the range of 0.0001 to 10 µM.

The compound `Cc1ncc(NC(=O)Cc2cc(F)c(-c3cnc4[nH]nc(C)c4c3)cc2F)cc1C(F)(F)F` [Compound P-0175, 2-(2,5-difluoro-4-(3-methyl-1H-pyrazolo[3,4-b]pyridin-5-yl)phenyl)-N-(6-methyl-5-(trifluoromethyl)pyridin-3-yl)acetamide] yielded an IC50 in assay [1] of 0.0001 to 10 µM. For the same compound, at BA/F3-FLT3-ITD + D835Y, the concentration for 50% growth inhibition (GI50) was in the range of 0.0001 to 10 µM.

Compound `Cn1cc(Nc2ncc(-c3ccc(CC(=O)Nc4ccc(C(F)(F)F)cn4)c(F)c3)cn2)cn1` [Compound P-0106, 2-[2-fluoro-4-[2-[(1-methylpyrazol-4-yl)amino]pyrimidin-5-yl]phenyl]-N-[5-(trifluoromethyl)-2-pyridyl]acetamide] returned an IC50 in assay [1] of 0.0001 to 10 µM. The GI50 on BA/F3-FLT3-ITD + D835Y is 0.0001 to 10 µM.

As to `Cn1cc(Nc2ncc(-c3ccc(CC(=O)Nc4cnc(Cl)c(C(F)(F)F)c4)cc3)cn2)cn1` [Compound P-0145, N-[6-chloro-5-(trifluoromethyl)-3-pyridyl]-2-[4-[2-[(1-methylpyrazol-4-yl)amino]pyrimidin-5-yl]phenyl]acetamide], the IC50 in assay [1] was in the range of 0.0001 to 10 µM. The GI50 at BA/F3-FLT3-ITD + D835Y was in the range of 0.0001 to 10 µM.

In turn, `COc1ncc(NC(=O)Cc2cc(F)c(-c3cnc4[nH]nc(C)c4c3)cc2F)cc1C(F)(F)F` [Compound P-0176, 2-[2,5-difluoro-4-(3-methyl-1H-pyrazolo[3,4-b]pyridin-5-yl)phenyl]-N-[6-methoxy-5-(trifluoromethyl)-3-pyridyl]acetamide] returned an IC50 in assay [1] of 0.0001 to 10 µM. Besides, at BA/F3-FLT3-ITD + D835Y, the GI50 lay in the range of 0.0001 to 10 µM.

In assay [1], `Cn1cc(Nc2ncc(-c3ccc(CC(=O)Nc4ccnc(S(C)(=O)=O)c4)cc3)cn2)cn1` [Compound P-0154, 2-[4-[2-[(1-methylpyrazol-4-yl)amino]pyrimidin-5-yl]phenyl]-N-(2-methylsulfonyl-4-pyridyl)acetamide] yielded a concentration for half-maximal inhibition (IC50) of 0.0001 to 10 µM. At BA/F3-FLT3-ITD + D835Y, the GI50 fell in the range of 0.0001 to 10 µM.

In assay [1], `COCCn1cc(Nc2ncc(-c3ccc(CC(=O)Nc4cnc(C)c(C(F)(F)F)c4)cc3)cn2)cn1` [Compound P-0179, 2-[4-[2-[[1-(2-methoxyethyl)pyrazol-4-yl]amino]pyrimidin-5-yl]phenyl]-N-[6-methyl-5-(trifluoromethyl)-3-pyridyl]acetamide] registered a 50% inhibitory concentration (IC50) of 0.0001 to 10 µM. On BA/F3-FLT3-ITD + D835Y, the 50% growth inhibitory concentration (GI50) was 0.0001 to 10 µM.

The compound `COc1ccc(-c2cc3cc(-c4ccc(CC(=O)Nc5cncc(C(F)(F)F)c5)cc4F)cnc3[nH]2)cn1` [Compound P-0196, 2-[3-fluoro-4-[2-(6-methoxy-3-pyridyl)-1H-pyrrolo[2,3-b]pyridin-5-yl]phenyl]-N-[5-(trifluoromethyl)-3-pyridyl]acetamide] gave a half-inhibitory concentration (IC50) in assay [1] of 0.0001 to 10 µM. The 50% growth inhibitory concentration (GI50) at BA/F3-FLT3-ITD + D835Y was 0.0001 to 10 µM.

Compound `Cn1cc(Nc2ncc(-c3ccc(CC(=O)NCc4ncccc4C(F)(F)F)cc3)cn2)cn1` [Compound P-0159, 2-[4-[2-[(1-methylpyrazol-4-yl)amino]pyrimidin-5-yl]phenyl]-N-[[3-(trifluoromethyl)-2-pyridyl]methyl]acetamide] gave a 50% inhibitory concentration (IC50) in assay [1] of 0.0001 to 10 µM. The GI50 at BA/F3-FLT3-ITD + D835Y was 0.0001 to 10 µM.

`COc1ccc(-c2cc3cc(-c4ccc(CC(=O)Nc5cc(C(F)(F)F)ccn5)cc4F)cnc3[nH]2)cn1` [Compound P-0191, 2-[3-fluoro-4-[2-(6-methoxy-3-pyridyl)-1H-pyrrolo[2,3-b]pyridin-5-yl]phenyl]-N-[4-(trifluoromethyl)-2-pyridyl]acetamide] displayed a concentration for half-maximal inhibition (IC50) in assay [1] of 0.0001 to 10 µM. At BA/F3-FLT3-ITD + D835Y, the 50% growth inhibitory concentration (GI50) fell in the range of 0.0001 to 10 µM.

`COc1ncc(NC(=O)Cc2ccc(-c3cnc4[nH]nc(C)c4c3)c(F)c2)cc1C(F)(F)F` [Compound P-0174, 2-[3-fluoro-4-(3-methyl-1H-pyrazolo[3,4-b]pyridin-5-yl)phenyl]-N-[6-methoxy-5-(trifluoromethyl)-3-pyridyl]acetamide] came in with a 50% inhibitory concentration (IC50) in assay [1] of 0.0001 to 10 µM. Further, the 50% growth inhibitory concentration (GI50) at BA/F3-FLT3-ITD + D835Y lay in the range of 0.0001 to 10 µM.

In the case of `O=C(Cc1ccc(-c2cnc3[nH]c(-c4ccnc(N5CCOCC5)c4)cc3c2)cn1)Nc1ccnc(C(F)(F)F)c1` [Compound P-0181, 2-[5-[2-(2-morpholino-4-pyridyl)-1H-pyrrolo[2,3-b]pyridin-5-yl]-2-pyridyl]-N-[2-(trifluoromethyl)-4-pyridyl]acetamide], the IC50 in assay [1] is 0.0001 to 10 µM. Also, at BA/F3-FLT3-ITD + D835Y, the GI50 was in the range of 0.0001 to 10 µM.

For `N#Cc1cc(-c2cc3cc(-c4ccc(CC(=O)Nc5ccnc(C(F)(F)F)c5)nc4)cnc3[nH]2)ccn1` [Compound P-0182, 2-[5-[2-(2-cyano-4-pyridyl)-1H-pyrrolo[2,3-b]pyridin-5-yl]-2-pyridyl]-N-[2-(trifluoromethyl)-4-pyridyl]acetamide], the IC50 in assay [1] was in the range of 0.0001 to 10 µM. Further, the concentration for 50% growth inhibition (GI50) at BA/F3-FLT3-ITD + D835Y fell in the range of 0.0001 to 10 µM.

In assay [1], `Cn1cnc(Nc2ncc(-c3ccc(CC(=O)Nc4cc(C(C)(F)F)ccn4)c(F)c3)cn2)c1` [Compound P-0102, N-[4-(1,1-difluoroethyl)-2-pyridyl]-2-[2-fluoro-4-[2-[(1-methylimidazol-4-yl)amino]pyrimidin-5-yl]phenyl]acetamide] had a half-inhibitory concentration (IC50) of 0.0001 to 10 µM. Further, the concentration for 50% growth inhibition (GI50) at BA/F3-FLT3-ITD + D835Y was in the range of 0.0001 to 10 µM.

The compound `Cn1cnc(Nc2ncc(-c3ccc(CC(=O)Nc4cnc(F)c(C(C)(F)F)c4)cc3F)cn2)c1` [Compound P-0170, N-[5-(1,1-difluoroethyl)-6-fluoro-3-pyridyl]-2-[3-fluoro-4-[2-[(1-methylimidazol-4-yl)amino]pyrimidin-5-yl]phenyl]acetamide] displayed a half-inhibitory concentration (IC50) in assay [1] of 0.0001 to 10 µM. In addition, on BA/F3-FLT3-ITD + D835Y, the GI50 is 0.0001 to 10 µM.

In assay [1], `Cc1ncc(NC(=O)Cc2ccc(-c3cnc(Nc4cnn(C)c4)nc3)cc2)cc1C(F)(F)F` [Compound P-0140, 2-[4-[2-[(1-methylpyrazol-4-yl)amino]pyrimidin-5-yl]phenyl]-N-[6-methyl-5-(trifluoromethyl)-3-pyridyl]acetamide] displayed a half-inhibitory concentration (IC50) of 0.0001 to 10 µM. The GI50 on BA/F3-FLT3-ITD + D835Y was in the range of 0.0001 to 10 µM.

Take `Cn1cnc(Nc2ncc(-c3ccc(CC(=O)Nc4cc(C(C)(F)F)ccn4)cc3)cn2)c1` [Compound P-0169, N-[4-(1,1-difluoroethyl)-2-pyridyl]-2-[4-[2-[(1-methylimidazol-4-yl)amino]pyrimidin-5-yl]phenyl]acetamide]: the IC50 in assay [1] was in the range of 0.0001 to 10 µM. On BA/F3-FLT3-ITD + D835Y, the GI50 fell in the range of 0.0001 to 10 µM.

In turn, `Cn1cc(Nc2ncc(-c3ccc(CC(=O)Nc4cnc(Cl)c(C(F)(F)F)c4)c(F)c3)cn2)cn1` [Compound P-0092, N-[6-chloro-5-(trifluoromethyl)-3-pyridyl]-2-[2-fluoro-4-[2-[(1-methylpyrazol-4-yl)amino]pyrimidin-5-yl]phenyl]acetamide] had an IC50 in assay [1] of 0.0001 to 10 µM. The GI50 on BA/F3-FLT3-ITD + D835Y was 0.0001 to 10 µM.

As a reminder, the IC50 is the concentration needed to halve the response being measured. Low readings indicate greater potency, high ones weaker potency. One may read the GI50 as the concentration that inhibits growth by half.
